This test deals with T1, IRAK4 (Homo sapiens, UniProt Q9NWZ3).
T1 construct: endogenous in cells; host or cells: OCI-LY10
T1 sequence (Q9NWZ3 1-460): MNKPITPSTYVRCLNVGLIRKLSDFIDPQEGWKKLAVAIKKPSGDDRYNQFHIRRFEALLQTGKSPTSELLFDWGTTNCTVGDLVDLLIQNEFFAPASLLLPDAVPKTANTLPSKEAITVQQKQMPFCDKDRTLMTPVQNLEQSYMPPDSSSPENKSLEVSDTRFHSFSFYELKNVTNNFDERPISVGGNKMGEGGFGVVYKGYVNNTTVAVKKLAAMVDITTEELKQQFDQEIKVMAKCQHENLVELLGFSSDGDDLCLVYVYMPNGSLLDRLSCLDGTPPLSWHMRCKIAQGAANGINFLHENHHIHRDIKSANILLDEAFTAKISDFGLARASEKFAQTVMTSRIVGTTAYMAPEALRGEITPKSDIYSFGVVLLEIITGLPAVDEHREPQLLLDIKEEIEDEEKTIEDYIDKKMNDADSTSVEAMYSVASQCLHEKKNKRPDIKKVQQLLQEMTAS
Put plainly: IRAK4 MSD Degradation in OCI-LY10. It is filed as cell-based. Conditions: OCI-LY10 cells, Meso Scale Discovery, incubated 4 to 24 hours. The procedure, abridged:
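OCI-LY10 cells (300,000/well) exposed to an 8-point 1:3 series from a top concentration of 1 to 10 μM for 4 to 24 h at 37 °C. IRAK4 remaining in RIPA lysates quantified by MSD sandwich immunoassay; DC50 from a three-parameter logistic fit.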

Some results are limits rather than exact numbers.

For the molecule `Cn1c(=O)n(C2CCC(=O)NC2=O)c2cccc(C3CCN(C[C@H]4CC[C@H](n5cc6cc(NC(=O)c7cccc(C(F)(F)F)n7)ccc6n5)CC4)CC3)c21` (stereo partly drawn) [I-57], the DC50 is < 10 nM.

As to `Cn1c(=O)n(C2CCC(=O)NC2=O)c2cccc(C3CCN(C[C@H]4CC[C@H](n5cc6cc(NC(=O)c7cccc(C(F)(F)F)n7)c(Cl)cc6n5)CC4)CC3)c21` (stereo partly drawn) [I-24], the 50% degradation concentration (DC50) lay in the range of 10 to 50 nM.

Take `Cc1cc2nn([C@H]3CC[C@H](CN4C[C@H]5C[C@@H]4CN5c4cccc5c4n(C)c(=O)n5C4CCC(=O)NC4=O)CC3)cc2cc1NC(=O)c1cccc(C(F)(F)F)n1` (stereo partly drawn) [I-389]: the DC50 was in the range of 10 to 50 nM.

For `COc1cc2nn([C@H]3CC[C@H](CN4CCN(c5c(C)ccc6c(N7CCC(=O)NC7=O)cncc56)CC4)CC3)cc2cc1NC(=O)c1cccc(C(F)(F)F)n1` [I-331], the DC50 was < 10 nM.

`Cn1c(=O)n(C2CCC(=O)NC2=O)c2cccc(N3CCN(C[C@H]4CC[C@H](n5cc6cc(NC(=O)c7cccc(C(F)(F)F)n7)c(N7C[C@@H]8C[C@H]7CO8)cc6n5)CC4)CC3)c21` (stereo partly drawn) [I-383]: the DC50 is < 10 nM.

Regarding `Cn1c(=O)n(C2CCC(=O)NC2=O)c2cccc(N3CCN(C[C@H]4CC[C@H](n5cc6cc(NC(=O)c7cccc(C(F)(F)F)n7)c(F)cc6n5)CC4)CC3)c21` (stereo partly drawn) [I-359], the DC50 was < 10 nM.

As to `CN(CCCNc1cccc2c1C(=O)N(C1CCC(=O)NC1=O)C2=O)C(=O)[C@H]1CC[C@H](c2nc3cc(C(C)(C)O)c(NC(=O)c4cccc(C(F)(F)F)n4)cc3s2)CC1` (stereo partly drawn) [I-489], the DC50 is > 200 nM.

In turn, `Cn1c(=O)n(C2CCC(=O)NC2=O)c2cccc(N3CCN(C[C@H]4CC[C@H](n5cc6cc(NC(=O)c7cccc(C(F)(F)F)n7)c(Cl)cc6n5)CC4)CC3)c21` (stereo partly drawn) [I-360] showed a DC50 of 10 to 50 nM.

On to `COc1cc2nc([C@H]3CC[C@H](CN4CCC(c5cccc6c5n(C)c(=O)n6C5CCC(=O)NC5=O)CC4)CC3)sc2cc1NC(=O)c1cncc(Cl)c1` (stereo partly drawn) [I-182], for which the DC50 was < 10 nM.

Consider `CC(C)Nc1cc(-c2ccc3cc(C#N)cnn23)ncc1C(=O)N[C@H]1CC[C@H](CN(C)C2CCN(c3cccc4c3n(C)c(=O)n4C3CCC(=O)NC3=O)CC2)CC1` (stereo partly drawn) [I-179], for which the DC50 was < 10 nM.

For the molecule `Cc1cc2nn([C@H]3CC[C@H](CN4CCN(c5cccc6c5n(C)c(=O)n6C5CCC(=O)NC5=O)CC4)CC3)cc2cc1NC(=O)c1cncc(C(F)(F)F)n1` (stereo partly drawn) [I-401], the DC50 was < 10 nM.

In the case of `COc1cc2nc([C@H]3CC[C@H](CN(C)CCNc4cccc5c4C(=O)N(C4CCC(=O)NC4=O)C5=O)CC3)sc2cc1NC(=O)c1cncc(Cl)c1` (stereo partly drawn) [I-484], the DC50 was > 200 nM.

For the molecule `COc1cc2nn(CCN(C)C3CCN(c4cccc5c4n(C)c(=O)n5C4CCC(=O)NC4=O)CC3)cc2cc1NC(=O)c1cccc(C(F)(F)F)n1` (stereo not drawn) [I-20, N-[2-[2-[[1-[1-(2,6-dioxo-3-piperidyl)-3-methyl-2-oxo-benzimidazol-4-yl]-4-piperidyl]-methyl-amino]ethyl]-6-methoxy-indazol-5-yl]-6-(trifluoromethyl)pyridine-2-carboxamide], the DC50 is > 200 nM.

Molecule `Cc1cc2nn([C@H]3CC[C@H](CN4CC5CC(C4)N5c4cccc5c4n(C)c(=O)n5C4CCC(=O)NC4=O)CC3)cc2cc1NC(=O)c1cccc(C(F)(F)F)n1` (stereo partly drawn) [I-414] came in with a DC50 of 10 to 50 nM.

`CN(C[C@H]1CC[C@H](n2cc3cc(NC(=O)c4cccc(C(F)(F)F)n4)ncc3n2)CC1)C1CCN(c2ccc3c(N4CCC(=O)NC4=O)cncc3c2)CC1` [I-317] gave a DC50 of 100 to 200 nM.

With `Cn1c(=O)n(C2CCC(=O)NC2=O)c2ccc(Cl)c(C3CCN(C[C@H]4CC[C@H](n5cc6cc(NC(=O)c7cccc(C(F)(F)F)n7)ncc6n5)CC4)CC3)c21` (stereo partly drawn) [I-88], the DC50 lay in the range of 10 to 50 nM.

`CC(C)(O)c1cc2nc([C@H]3CC[C@H](C(=O)N4CCN(CCCNc5cccc6c5C(=O)N(C5CCC(=O)NC5=O)C6=O)CC4)CC3)sc2cc1NC(=O)c1cccc(C#N)n1` (stereo partly drawn) [I-435] had a DC50 of 10 to 50 nM.

Turning to `COc1cc2nn([C@H]3CC[C@H](CN4C[C@H]5C[C@@H]4CN5c4cccc5c4n(C)c(=O)n5C4CCC(=O)NC4=O)CC3)cc2cc1NC(=O)c1cncc(C#N)c1` (stereo partly drawn) [I-166], the DC50 is > 200 nM.

Consider `COc1cc2nn([C@H]3CC[C@H](CN4CCC(c5c(C)ccc6c5n(C)c(=O)n6C5CCC(=O)NC5=O)CC4)CC3)cc2cc1NC(=O)c1cncc(C(F)(F)F)c1` (stereo partly drawn) [I-108], for which the DC50 was < 10 nM.

With `CN(C[C@H]1C[C@H](n2cc3cc(NC(=O)c4cccc(C(F)(F)F)n4)c(C(F)F)cc3n2)C1)C1CCN(c2cccc3c2n(C)c(=O)n3C2CCC(=O)NC2=O)CC1` (stereo partly drawn) [I-139], the DC50 lay in the range of 10 to 50 nM.

Regarding `CN(C)c1cc2nn([C@H]3CC[C@H](CN4CCC(c5cccc6c5n(C)c(=O)n6C5CCC(=O)NC5=O)CC4)CC3)cc2cc1NC(=O)c1cccc(C(F)(F)F)n1` (stereo partly drawn) [I-107], the DC50 was < 10 nM.

On to `Cn1c(=O)n(C2CCC(=O)NC2=O)c2cccc(C3C[C@H]4CC[C@@H](C3)N4C[C@H]3CC[C@H](n4cc5cc(NC(=O)c6cccc(C(F)(F)F)n6)ccc5n4)CC3)c21` (single isomer, unassigned) [I-250], for which the DC50 fell in the range of 10 to 50 nM.

As to `CC(C)Nc1cc(-n2ccc3cc(C#N)cnc32)ncc1-c1cn([C@H]2CC[C@H](CN3CCN(c4cccc5c4n(C)c(=O)n5C4CCC(=O)NC4=O)CC3)CC2)nn1` (stereo partly drawn) [I-231], the DC50 lay in the range of 10 to 50 nM.

`CC(C)(O)c1cc2nc([C@H]3CC[C@H](CN4CCO[C@H](CCCNc5cccc6c5C(=O)N(C5CCC(=O)NC5=O)C6=O)C4)CC3)sc2cc1NC(=O)c1cccc(C#N)n1` (stereo partly drawn) [I-442] showed a DC50 of 50 to 100 nM.

Consider `CC(C)Nc1c(C(=O)N[C@H]2CC[C@H](CN3CCN(c4cccc5c4n(C)c(=O)n5C4CCC(=O)NC4=O)CC3)CC2)cnc2sc(-c3cncs3)cc12` (stereo partly drawn) [I-416], for which the DC50 was < 10 nM.

On to `COc1cc2nn([C@H]3CC[C@H](CN4C[C@@H]5C[C@H]4CN5c4cccc5c4n(C)c(=O)n5C4CCC(=O)NC4=O)CC3)cc2cc1NC(=O)c1cccc(C(F)(F)F)n1` (stereo partly drawn) [I-168], for which the 50% degradation concentration (DC50) is < 10 nM.

On to `O=C1CCN(c2cncc3c(N4CCN(C[C@H]5CC[C@H](n6cc7cc(NC(=O)c8cccc(C(F)(F)F)n8)c(C(F)F)cc7n6)CC5)CC4)cccc23)C(=O)N1` [I-371], for which the DC50 was < 10 nM.

With `COc1cc2nn([C@H]3CC[C@H](CN4CCC(c5cccc6c5n(C)c(=O)n6C5CCC(=O)NC5=O)CC4(C)C)CC3)cc2cc1NC(=O)c1cccc(C(F)(F)F)n1` (stereo partly drawn) [I-424], the DC50 is < 10 nM.

Regarding `CN(CCCO[C@H]1C[C@H](Nc2cccc3c2C(=O)N(C2CCC(=O)NC2=O)C3=O)C1)C[C@H]1CC[C@H](n2cc3cc(NC(=O)c4cccc(C(F)(F)F)n4)ncc3n2)CC1` (stereo partly drawn) [I-353], the DC50 is > 200 nM.

In the case of `COc1cc2nn([C@H]3CC[C@H](CN4CCC5(CC4)CC(CNc4cccc6c4C(=O)N(C4CCC(=O)NC4=O)C6=O)C5)CC3)cc2cc1NC(=O)c1cccc(C(C)(F)F)n1` (stereo partly drawn) [I-4], the half-maximal degradation concentration (DC50) lay in the range of 50 to 100 nM.

Take `O=C1CCN(c2cncc3c(C4CCN(C[C@H]5CC[C@H](n6cc7cc(NC(=O)c8cccc(C(F)(F)F)n8)ncc7n6)CC5)CC4)cccc23)C(=O)N1` [I-103]: the DC50 was in the range of 10 to 50 nM.

Turning to `COc1ccc2c(c1C1CCN(C[C@H]3CC[C@H](n4cc5cc(NC(=O)c6cccc(C(F)(F)F)n6)c(C#N)cc5n4)CC3)CC1)n(C)c(=O)n2C1CCC(=O)NC1=O` (stereo partly drawn) [I-205], the DC50 is < 10 nM.

The molecule `Cc1cccc(C(=O)Nc2cc3sc([C@H]4CC[C@H](C(=O)N5CC6(CC(CCNc7cccc8c7C(=O)N(C7CCC(=O)NC7=O)C8=O)C6)C5)CC4)nc3cc2C(C)(C)O)n1` (stereo partly drawn) [I-469] showed a DC50 of 100 to 200 nM.

As to `COc1cc2nn([C@H]3CC[C@H](CN4CC=C(c5cccc6c5n(C)c(=O)n6C5CCC(=O)NC5=O)C4)CC3)cc2cc1NC(=O)c1cccc(C(F)(F)F)n1` (stereo partly drawn) [I-266], the half-maximal degradation concentration (DC50) is < 10 nM.

Take `Cn1c(=O)n(C2CCC(=O)NC2=O)c2cccc(N3CCN(C[C@H]4CC[C@H](n5cc6cc(NC(=O)c7cncc(C#N)c7)c(OC(F)(F)F)cc6n5)CC4)CC3)c21` (stereo partly drawn) [I-160]: the DC50 is > 200 nM.

In the case of `COc1cc2nn([C@H]3CC[C@H](CN4CC5(CCN(c6cccc7c6n(C)c(=O)n7C6CCC(=O)NC6=O)CC5)C4)CC3)cc2cc1NC(=O)c1cncc(C#N)c1` (stereo partly drawn) [I-206], the DC50 is < 10 nM.

On to `COc1cc(NC(=O)c2cccc(C(F)(F)F)n2)cc2cn([C@H]3CC[C@H](CN4CCN(c5cccc6c(N7CCC(=O)NC7=O)cncc56)CC4)CC3)nc12` [I-222], for which the DC50 was < 10 nM.

In the case of `COc1cc2nn([C@H]3CC[C@H](CN4CCC(c5c(Cl)ccc6c5n(C)c(=O)n6C5CCC(=O)NC5=O)CC4)CC3)cc2cc1NC(=O)c1cccc(C(F)(F)F)n1` (stereo partly drawn) [I-37], the DC50 is < 10 nM.

`CC(C)Nc1cc(-c2ccc3cc(C#N)cnn23)ncc1C(=O)N[C@H]1CC[C@H](CN2CCC(OCC#Cc3cccc4c3n(C)c(=O)n4C3CCC(=O)NC3=O)CC2)CC1` (stereo partly drawn) [I-199] displayed a DC50 of 10 to 50 nM.

For the molecule `COc1cc2nn([C@H]3CC[C@H](CN(C)C4CCN(c5cccc6c5n(C)c(=O)n6C5CCC(=O)NC5=O)CC4)CC3)cc2cc1NC(=O)c1cncc(C(F)(F)F)c1` (stereo partly drawn) [I-130], the DC50 is < 10 nM.

Consider `Cn1c(=O)n(C2CCC(=O)NC2=O)c2cccc(C3CCN(C[C@H]4CC[C@H](n5cc6cc(NC(=O)c7cccc(C(F)(F)F)c7F)ccc6n5)CC4)CC3)c21` (stereo partly drawn) [I-214], for which the DC50 was < 10 nM.

On to `COc1cc2nn([C@H]3CC[C@H](CN4CCC(c5cccc6c5n(C)c(=O)n6C5CCC(=O)NC5=O)CC4)CC3)cc2cc1NC(=O)c1cncc(C#N)c1` (stereo partly drawn) [I-77], for which the DC50 was < 10 nM.

Values taken from patent publication US12150995B2, “IRAK degraders and uses thereof” (Kymera Therapeutics, Inc., priority 2020, dated 2024).
